Experimental data taken from ChEMBL document CHEMBL5728660, “Monosaccharide amine and 3-nitro-2-phenyl-2H-chromene based inhibitors of glucose kinases” (2021).

Assay: enzyme-inhibition screening assay: The 16 compounds showing substantial inhibition against TcGlcK at compound concentrations of 20 μM were then examined in a confirmatory assay in which the amino sugar analogues were at a concentration of 20 μM and were tested against the assay's only coupling enzyme, G6PDH, to verify enzyme activity; the assay was performed in quadruplicate. […] These confirmed hits included representatives from all three monosaccharide scaffolds tested (i.e., D-GlcN, D-ManN, and D-GalN).

O=C(N[C@H]1C(O)O[C@H](CO)[C@@H](O)[C@@H]1O)c1ccccc1 (stereo partly specified)
IC50: 16.1 µM
